These results are taken from patent US20210283163A1, “COMPOSITIONS AND METHODS FOR THE TREATMENT OF ACUTE AND CHRONIC PRURITIS” (Duke University, priority 2018, published 2021).

The target in one data set is T1, mmu-TRPA1 (Mus musculus, UniProt Q8BLA8).
T1 construct: HA; expressed in transfected cells; host or cells: CHO cells (ATCC CRL-9096), transient transfection with Lipofectamine 2000
The data set is described as follows: Whole-cell patch clamp in CHO cells transfected with wild-type mmu-Trpa1 cDNA. It is filed as cell-based. As to conditions: miR-711 10 μM, AITC 50 μM. As for the experimental part: (§1) Constructs. The cDNAs of mouse pcDNA3.1-Trpa1, pcDNA3.1-Trpv1, pcDNA3.1-Trpv2, pcDNA3.1-Trpv3, and pcDNA3.1-Trpv4 were kindly provided Dr. Sun Work Hwang from Korea University. Mouse Trpa1 cDNA was subcloned into pCGN-HA backbone (Addgene) using In-Fusion HD Cloning Kit (Clontech Laboratories, CA). Q5 Site-Directed Mutagenesis Kit was used to generate mTrpa1 mutant (M1-M13) based on pCGN-mTrpa1.
(§2) Cell Culture and Transfection. CD4^+ Myla cell line was cultured in RPMI 1640 media (GIBCO), supplemented with 2 mM Glutamine (GIBCO), 100 U/mL IL-2 (Sigma), 100 U/mL IL-4 (Sigma), and 10% human AB serum (Sigma). HuT 102 cell line was cultured in RPMI 1640 supplemented with pyruvate, HEPES, and 10% (v/v) fetal bovine serum (HyClone). HEK293-hTRPA1 stable cell line was cultured in MEM (GIBCO) containing 2 mM Glutamine, 4 μg/mL Blasticidin, 10% FBS (v/v). B16 and CHO cells were cultured in high glucose (4.5 g/L) Dulbecco's Modified Eagle's Medium (GIBCO) containing 10% (v/v) fetal bovine serum (GIBCO). Culture media were supplemented with 50 units/mL of penicillin and 50 μg/mL streptomycin, and cultures were maintained with 5% CO2 in 37° C. incubator. Transfection (2 μg cDNA) was performed with Lipofectamine™ 2000 Reagent (Invitrogen) at 80% confluency and the transfected cells were cultured in the same media for 48 hr before electrophysiological and biochemical studies. […]
A general note: In patch-clamp work, channel activity is measured electrically.

A further data set deals with mTRPA1 mutants (M1-M13). The data set is described as follows: Whole-cell patch clamp in CHO cells transfected with mutant mTrpa1 cDNAs (M1-M13). It is filed as cell-based, mouse. As to conditions: for effect of mutations on induced currents: M2, M3, M4, M5, and M10; for induced currents in mutants: mutants M1, M6, M7, M8, M9, and M12, AITC 50 μM, miR-711 10 μM. As for the experimental part: as §1
Cell Culture and Transfection. CD4^+ Myla cell line was cultured in RPMI 1640 media (GIBCO), supplemented with 2 mM Glutamine (GIBCO), 100 U/mL IL-2 (Sigma), 100 U/mL IL-4 (Sigma), and 10% human AB serum (Sigma). HuT 102 cell line was cultured in RPMI 1640 supplemented with pyruvate, HEPES, and 10% (v/v) fetal bovine serum (HyClone). HEK293-hTRPA1 stable cell line was cultured in MEM (GIBCO) containing 2 mM Glutamine, 4 μg/mL Blasticidin, 10% FBS (v/v). B16 and CHO cells were cultured in high glucose (4.5 g/L) Dulbecco's Modified Eagle's Medium (GIBCO) containing 10% (v/v) fetal bovine serum (GIBCO). Culture media were supplemented with 50 units/mL of penicillin and 50 μg/mL streptomycin, and cultures were maintained with 5% CO2 in 37° C. incubator. Transfection (2 μg cDNA) was performed with Lipofectamine™ 2000 Reagent (Invitrogen) at 80% confluency and the transfected cells were cultured in the same media for 48 hr before electrophysiological and biochemical studies.
Whole-Cell Patch Clamp Recordings in HEK293 Cells, CHO Cells, and DRG Neurons. Whole-cell patch clamp recordings were performed at room temperature using an Axopatch-200B amplifier (Axon Instruments) with a Digidata 1440B (Axon Instruments). In this study, we only examined small-diameter mouse DRG neurons (<25 μM) and small-diameter human DRG neurons (<55 μM). The patch pipettes were pulled from borosilicate capillaries (World Precision Instruments) using a P-97 Flaming/Brown micropipette puller (Sutter Instrument). Pipette resistance was 4-6 MΩ for whole-cell and outside-out recording. For inward current recordings in mouse and human DRG neurons, HEK293 cells, and CHO cells, the internal solution contains (in mM): 140 CsCl, 10 EGTA, 10 HEPES, and 2 Mg-ATP, adjusted to pH 7.3 with CsOH. Whole cell recordings were performed in an extracellular solution that contains (in mM): 140 NaCl, 5 KCl, 2 MgCl2, 10 HEPES, and 10 glucose, adjusted to pH 7.4 with NaOH and osmolarity to 300-310 mOsm. […] Action potential recordings were performed in small-diameter DRG neurons, with the following solutions: i) internal pipette solution contains: 126 mM K-gluconate, 10 mM NaCl, 1 mM MgCl2, 10 mM EGTA, 10 mM HEPES and 2 mM Na-ATP, adjusted to pH 7.4 with KOH and osmolarity to 295-300 mOsm), and ii) extracellular solution contains: 140 mM NaCl, 5 mM KCl, 2 mM MgCl2, 2 mM CaCl2, 10 mM HEPES, 10 mM glucose, adjusted to pH 7.4 with KOH.

The target in another data set is hTRPA1 (Homo sapiens, UniProt O75762). Briefly: Calcium imaging (Fura-2) in TRPA1-expressing HEK293 cells. It is filed as cell-based. As to conditions: 50 μM. The method, then: Ca^2+ Imaging. Ca ^2+ imaging was conducted in mouse DRG and TG neurons from Pirt-GCaMP3 mice (Anderson et al., Neurosci. Bull. 2018, 34, 194-199) at room temperature. The imaging buffer includes 140 mM NaCl, 10 mM D-(+)-Glucose, 1 mM MgCl2, 2 mM CaCl2, 5 mM KCl, 10 mM HEPES, pH=7.4, osmolarity=320 mOsm/L. Calcium signals were measured using green emitted light in a 3 s interval. Ca ^2+ signal amplitudes were presented as ΔF/F0=(Ft−F0)/F0 as ratio of fluorescence difference (Ft−F0) to basal value (F0). The average fluorescence intensity in the baseline period was taken as F0. Ca ^2+ imaging was also analyzed in HEK293-TRPA1 cell line after loading cells with […] fura2-AM (Invitrogen) for 40 min in the Ca^2+ imaging buffer. Ca^2+ imaging protocol was a ratio metric method with 340/380-nm wavelength light for dual excitation. Data were presented as ΔR/R0, determined as the fraction ΔR (Rt−R0) of the increase of a given ratio over baseline ratio (R0).

The target in a further data set is T2, TRPV4 (Mus musculus, UniProt Q9EPK8).
T2 construct: expressed in transfected cells; host or cells: CHO cells (ATCC CRL-9096), plasmid pcDNA3.1-mTrpv4, a gift from Korea University
The data set is described as follows: Whole-cell patch clamp in CHO cells transfected with mouse Trpv4 cDNA. It is filed as cell-based. As to conditions: miR-711 10 μM; GSK1016790A 1 μM. The method, then:
as §1, §2

Data set [1] deals with mice. The data set is described as follows: Back model: intradermal nape injection, scratching. It is filed as in vivo, mouse. As to conditions: 0.01-1 mM, 10 μL. The method, then: (§3) Behavioral Assessment for Scratching (Itch) and Wiping (Pain). Mice were shaved on the cheek or nape after a brief anesthesia with isoflurane. Before experiments, mice were habituated in small plastic chambers (14×18×12 cm) daily for two days. The room temperature and humidity remained stable for all the experiments. […] After the injection, the number of scratches in 60 min was counted. A scratch was counted when a mouse lifted its hind paw to scratch the shaved region and returned the paw to the floor or to the mouth. A bout of wiping was defined as a continuous wiping movement with a forepaw directing at the area of the injection area (Shimada and LaMotte, Pain 2008, 139, 681-687). Scratching and wiping behavior was videoed for 30 min or 60 min using Sony HDR-CX610 camera. The video was subsequently played back offline and the numbers of scratches and wipes were quantified in a blinded manner.

Another data set concerns the target T3, TRPV1 (Mus musculus, UniProt Q704Y3).
T3 construct: expressed in transfected cells; host or cells: CHO cells (ATCC CRL-9096), plasmid pcDNA3.1-mTrpv1, a gift from Korea University
Briefly: Whole-cell patch clamp in CHO cells transfected with mouse Trpv1 cDNA. The format is cell-based. As to conditions: miR-711 10 μM; capsaicin 50 nM. The method, then:
as §1, §2

Data set [2] has as its system mice. The data set is described as follows: Acute pruritus induced by intradermal pruritogens, effect of peptides. It is filed as in vivo, mouse. As to conditions: peptide 2 mM. As for the experimental part: as §3

T1 sequence (Q8BLA8 whole entry): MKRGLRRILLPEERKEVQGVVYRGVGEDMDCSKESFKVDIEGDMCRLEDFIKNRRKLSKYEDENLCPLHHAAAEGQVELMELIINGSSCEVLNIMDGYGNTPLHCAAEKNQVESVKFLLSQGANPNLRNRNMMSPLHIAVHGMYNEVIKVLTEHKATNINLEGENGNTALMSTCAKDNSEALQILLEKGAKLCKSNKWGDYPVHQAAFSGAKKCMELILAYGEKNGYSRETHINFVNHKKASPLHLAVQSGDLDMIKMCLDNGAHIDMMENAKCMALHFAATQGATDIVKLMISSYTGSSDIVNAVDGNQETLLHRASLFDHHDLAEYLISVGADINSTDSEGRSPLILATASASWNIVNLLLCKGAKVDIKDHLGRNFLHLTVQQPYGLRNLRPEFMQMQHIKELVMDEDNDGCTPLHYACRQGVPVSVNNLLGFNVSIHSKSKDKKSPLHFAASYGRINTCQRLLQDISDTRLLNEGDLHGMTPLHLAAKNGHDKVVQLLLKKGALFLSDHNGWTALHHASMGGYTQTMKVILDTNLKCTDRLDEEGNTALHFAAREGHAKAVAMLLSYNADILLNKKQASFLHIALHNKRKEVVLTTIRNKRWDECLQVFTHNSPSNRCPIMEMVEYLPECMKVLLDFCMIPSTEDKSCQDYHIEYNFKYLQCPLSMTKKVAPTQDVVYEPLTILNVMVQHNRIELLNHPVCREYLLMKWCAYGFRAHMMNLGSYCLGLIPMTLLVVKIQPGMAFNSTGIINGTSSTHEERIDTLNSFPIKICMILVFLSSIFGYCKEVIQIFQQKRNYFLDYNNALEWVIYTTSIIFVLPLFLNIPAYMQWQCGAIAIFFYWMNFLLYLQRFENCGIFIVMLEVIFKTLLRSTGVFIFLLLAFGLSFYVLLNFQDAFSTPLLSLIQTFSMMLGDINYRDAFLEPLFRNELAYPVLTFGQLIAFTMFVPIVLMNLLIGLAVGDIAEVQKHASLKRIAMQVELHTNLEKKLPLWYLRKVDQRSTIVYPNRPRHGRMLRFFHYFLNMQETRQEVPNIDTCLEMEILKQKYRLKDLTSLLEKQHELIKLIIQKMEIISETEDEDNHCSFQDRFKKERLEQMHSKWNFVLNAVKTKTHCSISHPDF
T2 sequence (Q9EPK8 whole entry): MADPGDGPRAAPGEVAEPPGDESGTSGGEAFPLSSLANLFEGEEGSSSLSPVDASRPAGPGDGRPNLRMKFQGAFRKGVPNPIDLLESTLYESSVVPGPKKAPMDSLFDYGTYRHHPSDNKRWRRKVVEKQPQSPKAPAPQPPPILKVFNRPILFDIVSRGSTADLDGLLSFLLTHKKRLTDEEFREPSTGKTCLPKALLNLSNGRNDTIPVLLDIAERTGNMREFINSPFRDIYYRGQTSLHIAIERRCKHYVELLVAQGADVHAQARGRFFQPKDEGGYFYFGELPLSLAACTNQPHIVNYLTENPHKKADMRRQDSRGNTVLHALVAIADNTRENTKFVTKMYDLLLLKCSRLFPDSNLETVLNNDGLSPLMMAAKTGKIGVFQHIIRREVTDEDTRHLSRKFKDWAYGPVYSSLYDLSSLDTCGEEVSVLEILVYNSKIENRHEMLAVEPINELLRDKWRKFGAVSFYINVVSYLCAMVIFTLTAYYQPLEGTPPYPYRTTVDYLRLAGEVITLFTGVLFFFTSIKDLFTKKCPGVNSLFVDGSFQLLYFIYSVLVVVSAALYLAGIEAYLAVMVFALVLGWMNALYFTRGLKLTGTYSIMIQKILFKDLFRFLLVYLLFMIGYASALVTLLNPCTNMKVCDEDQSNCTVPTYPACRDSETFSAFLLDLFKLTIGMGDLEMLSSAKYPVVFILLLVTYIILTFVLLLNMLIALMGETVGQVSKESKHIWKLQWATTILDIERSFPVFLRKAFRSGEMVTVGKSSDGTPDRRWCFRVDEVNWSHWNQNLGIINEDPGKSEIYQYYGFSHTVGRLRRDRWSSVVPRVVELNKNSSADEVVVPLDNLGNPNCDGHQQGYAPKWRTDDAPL
Chain of hTRPA1 (O75762 whole entry): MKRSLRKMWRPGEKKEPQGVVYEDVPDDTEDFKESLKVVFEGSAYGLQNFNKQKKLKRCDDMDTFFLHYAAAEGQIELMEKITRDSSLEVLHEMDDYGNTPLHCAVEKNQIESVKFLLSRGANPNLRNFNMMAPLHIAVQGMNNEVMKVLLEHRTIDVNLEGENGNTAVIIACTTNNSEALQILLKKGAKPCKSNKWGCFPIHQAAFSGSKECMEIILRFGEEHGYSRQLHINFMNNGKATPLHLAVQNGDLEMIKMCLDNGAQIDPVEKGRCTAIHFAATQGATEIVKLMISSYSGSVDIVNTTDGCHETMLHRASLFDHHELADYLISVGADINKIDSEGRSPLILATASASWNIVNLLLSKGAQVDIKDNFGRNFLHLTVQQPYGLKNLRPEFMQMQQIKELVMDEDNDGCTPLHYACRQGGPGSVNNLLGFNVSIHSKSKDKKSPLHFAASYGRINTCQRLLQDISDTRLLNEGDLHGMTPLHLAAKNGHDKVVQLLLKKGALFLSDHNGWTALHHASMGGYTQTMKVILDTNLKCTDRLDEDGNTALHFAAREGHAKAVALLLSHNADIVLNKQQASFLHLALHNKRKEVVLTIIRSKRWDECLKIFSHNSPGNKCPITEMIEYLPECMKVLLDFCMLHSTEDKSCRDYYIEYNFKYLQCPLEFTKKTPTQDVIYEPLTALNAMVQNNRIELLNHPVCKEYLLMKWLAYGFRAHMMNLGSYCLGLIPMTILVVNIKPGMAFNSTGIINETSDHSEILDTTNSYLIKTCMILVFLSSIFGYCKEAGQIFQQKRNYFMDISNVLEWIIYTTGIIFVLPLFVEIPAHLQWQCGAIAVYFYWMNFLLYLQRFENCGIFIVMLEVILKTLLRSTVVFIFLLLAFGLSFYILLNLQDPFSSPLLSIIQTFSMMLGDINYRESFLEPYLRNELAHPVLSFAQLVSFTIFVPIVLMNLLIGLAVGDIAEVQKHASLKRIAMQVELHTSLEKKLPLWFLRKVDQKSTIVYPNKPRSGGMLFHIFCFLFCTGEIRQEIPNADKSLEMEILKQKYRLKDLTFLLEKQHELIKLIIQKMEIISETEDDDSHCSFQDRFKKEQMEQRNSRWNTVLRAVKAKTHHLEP
T3 sequence (Q704Y3 whole entry): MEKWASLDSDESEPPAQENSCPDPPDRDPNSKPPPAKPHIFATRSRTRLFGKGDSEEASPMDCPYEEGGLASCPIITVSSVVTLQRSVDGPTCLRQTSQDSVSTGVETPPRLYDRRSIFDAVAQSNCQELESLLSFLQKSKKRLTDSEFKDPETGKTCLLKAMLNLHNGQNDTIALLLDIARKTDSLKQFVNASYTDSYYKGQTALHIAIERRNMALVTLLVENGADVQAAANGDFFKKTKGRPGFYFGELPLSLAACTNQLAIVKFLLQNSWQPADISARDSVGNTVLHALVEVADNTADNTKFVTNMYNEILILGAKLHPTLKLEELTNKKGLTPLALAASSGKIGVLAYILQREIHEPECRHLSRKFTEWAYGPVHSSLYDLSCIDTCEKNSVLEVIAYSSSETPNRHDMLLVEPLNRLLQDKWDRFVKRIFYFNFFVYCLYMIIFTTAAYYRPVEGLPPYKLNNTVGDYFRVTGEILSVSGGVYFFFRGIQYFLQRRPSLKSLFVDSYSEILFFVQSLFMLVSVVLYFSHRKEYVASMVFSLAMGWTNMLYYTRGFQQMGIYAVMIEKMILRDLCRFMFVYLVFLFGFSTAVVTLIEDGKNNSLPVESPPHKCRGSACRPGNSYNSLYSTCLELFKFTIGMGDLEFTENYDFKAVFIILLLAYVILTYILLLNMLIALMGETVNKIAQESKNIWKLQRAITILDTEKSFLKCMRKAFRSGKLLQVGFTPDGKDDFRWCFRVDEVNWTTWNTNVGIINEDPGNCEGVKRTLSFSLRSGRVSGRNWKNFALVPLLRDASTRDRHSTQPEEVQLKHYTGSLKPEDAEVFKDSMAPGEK

For `C=CCN=C=S` [AITC], on mmu-TRPA1, the inward currents entry is listed as “induce inward currents”. For the same compound, the “AITC-induced currents in mutants” value in the data set with mTRPA1 mutants (M1-M13) (M2, M3, M4, M5, M10, M11, and M13) is on record as “unaltered”. Also, in the data set on mTRPA1 mutants (M1-M13), the “effect of mutations on induced currents” value was “no effects” and the “induced currents in mutants” value is reported as “substantial reductions”.

In the case of “miR-711: mmu-miR-711: gggacccggggagagauguaag (SEQ ID NO: 5) (GGGACCCGGGGAGAGAUGUAAG; chemistry not given here)”, in the data set with hTRPA1, the “calcium responses in TRPA1-expressing HEK293 cells” value was “evoked calcium responses”. Besides, the inward currents result is given as “failed to trigger inward currents” with TRPV4, “induce inward currents” with mmu-TRPA1 and “failed to trigger inward currents” with TRPV1. The “scratching after intradermal injection on the nape of neck” value with mice [1] was “dose-dependent scratching”. In addition, the “effect of mutations on induced currents” value in the data set on mTRPA1 mutants (M1-M13) is “no effects”. The “induced currents in mutants” value in the data set on mTRPA1 mutants (M1-M13) is given as “substantial reductions”.

As to “NH2-FRNELAYPVLTFGQL-COOH (H-FRNELAYPVLTFGQL-OH) [blocking peptide]”, the “effect on miR-711-induced pruritus” value in the data set with mice [2] (15 μL intradermal, mmu-miR-711 1 mM, 10 μL) is “prevented”. Also, the “effect on acute itch induced by compound 48/80” value in the data set with mice [2] (15 μL, 48/80 50 μg/10 μL) is reported as “no effect”. Also, the “effect on acute itch induced by chloroquine” value with mice [2] (15 μL, CQ 100 μg/10 μL) is “no effect”.
